From patent US11708368B2, “Crystal form of ethyl (S)-3-(8-bromo-1-methyl-6-(pyridin-2-yl)-4H-benzo[f]imidazo[1,2-a][1,4]diazepin-4-yl)propanoate hydrochloride” (JIANGSU NHWALUOKANG PHARMACEUTICAL RESEARCH AND DEVELOPMENT …, priority 2018, dated 2023)

Tests used:
KM mice [1] = assay: Hypnotic ED50 in KM mice by sequential method (disappearance of righting reflex); assay type: in vivo; conditions: male KM mice, tail vein injection in 5 seconds
Protocol: (§1) Sequential method was used to determine the hypnotic ED50 and LD50 in KM mice for the hydrochloride of the benzodiazepine derivative. Healthy and qualified male KM mice were selected, n=10−20. The drug was injected through the tail vein at a constant rate in 5 seconds. After preliminary pre-test, the approximate dosage that may cause hypnosis (or death) of the animals was found as an intermediate dosage in the formal experiment. A group interval of 0.8 was used, and 2-3 dosage groups were set up and down respectively. The formal experiment started with the administration from the intermediate dosage. When the animal was narcotized (or died), the dosage was reduced by one dose. If the animal was not narcotized (or died), the dosage was increased by one until 3-4 repetitions occurred. The ED50 value and LD50 value were measured with the disappearance of righting reflex or death as indicators. The therapeutic index (TI index=[…]) was calculated through LD50 and ED50 values.

KM mice [2] = assay: LD50 in KM mice by sequential method (death); assay type: in vivo; conditions: for TI (therapeutic index): KM mice, calculated through LD50 and ED50 values; for LD50 (95% confidence interval): male KM mice, tail vein injection in 5 seconds, death, sequential method
Protocol: as §1

[3] = Accelerated stability test (40° C., RH75%), change in degradation product CNS-7054; assay type: physicochemical; conditions: for Change in CNS-7054, Accelerated experiment (40° C., RH75%): 6 months, after packaging, degradation product CNS-7054; for CNS-7054 increase, accelerated experiment (40° C., RH75%): in 1 month, sulfonate of the benzodiazepine derivative
Protocol: (§2) The compound of Formula I prepared in the above examples were selected, and placed under the conditions of 40° C., RH75% and 25° C., RH60% for an accelerated stability test and a long-term stability test after packaging. The changes in the degradation product (CNS-7054) in these compounds in 6 months were observed, and the results are shown in Table 13 below.
(§3) In addition, a lyophilized preparation made of sulfonates according to the prior art were partially degraded into carboxylic acid (CNS-7054) and released alcohol in both the accelerated and long-term experiments.

[4] = Long-term stability test (25° C., RH60%), change in degradation product CNS-7054; assay type: physicochemical; conditions: for Change in CNS-7054, Long-term experiment (25° C., RH60%): 6 months, after packaging, degradation product CNS-7054; for CNS-7054 increase, long-term experiment (25° C., RH60%): in 3 months, sulfonate of the benzodiazepine derivative
Protocol: as §2, §3

patients = conditions: Phase II clinical trial of ICU sedation; cited from earlier work
KM mice [5] = assay: 2*ED50 anesthesia pharmacodynamics experiment in KM mice (induction time, duration, walking time); assay type: in vivo; conditions: n=20, dosage 2*ED50, tail vein injection in 5 seconds
Protocol: KM mice, half male and half female, 20 mice in each group. […] The time of loss of the righting reflex in mice (induction time), recovery time (duration) and walking time were recorded.

COC(=O)CCC1N=C(c2ccccn2)c2cc(Br)ccc2-n2c(C)cnc21.O=S(=O)(O)c1ccccc1 (stereo not shown) [positive control 1]
ED50 (95% confidence interval) (KM mice [1]): 40.64 mg/kg
TI (therapeutic index) (KM mice [2]): 6.6
LD50 (95% confidence interval) (KM mice [2]): 270.09 mg/kg

COC(=O)CCC1N=C(c2ccccn2)c2cc(Br)ccc2-n2c(C)cnc21.Cl (stereo not shown) [Methyl, 2% glycine]
Change in CNS-7054, Accelerated experiment (40° C., RH75%) [3]: Not increased
Change in CNS-7054, Long-term experiment (25° C., RH60%) [4]: Not increased

COC(=O)CCC1N=C(c2ccccn2)c2cc(Br)ccc2-n2c(C)cnc21.Cl (stereo not shown) [Methyl, 5% alanine]
Change in CNS-7054, Accelerated experiment (40° C., RH75%) [3]: Increased by 0.01%
Change in CNS-7054, Long-term experiment (25° C., RH60%) [4]: Not increased

CCOC(=O)CCC1N=C(c2ccccn2)c2cc(Br)ccc2-n2c(C)cnc21.O=S(=O)(O)c1ccccc1 (stereo not shown)
CNS-7054 increase, accelerated experiment (40° C., RH75%) [3]: Increased by 0.05%
CNS-7054 increase, long-term experiment (25° C., RH60%) [4]: Increased by 0.03%

CCOC(=O)CCC1N=C(c2ccccn2)c2cc(Br)ccc2-n2c(C)cnc21.Cl (stereo not shown) [Ethyl, 4% alanine]
Change in CNS-7054, Accelerated experiment (40° C., RH75%) [3]: Increased by 0.01%
Change in CNS-7054, Long-term experiment (25° C., RH60%) [4]: Not increased

COC(=O)CCC1N=C(c2ccccn2)c2cc(Br)ccc2-n2c(C)cnc21.Cc1ccc(S(=O)(=O)O)cc1 (stereo not shown)
CNS-7054 increase, accelerated experiment (40° C., RH75%) [3]: Increased by 0.1%
CNS-7054 increase, long-term experiment (25° C., RH60%) [4]: Increased by 0.1%

COC(=O)CC[C@@H]1N=C(c2ccccn2)c2cc(Br)ccc2-n2c(C)cnc21.O=S(=O)(O)c1ccccc1
CNS-7054 increase, accelerated experiment (40° C., RH75%) [3]: Increased by 0.07%
CNS-7054 increase, long-term experiment (25° C., RH60%) [4]: Increased by 0.04%

CCOC(=O)CCC1N=C(c2ccccn2)c2cc(Br)ccc2-n2c(C)cnc21.Cl (stereo not shown) [Ethyl, None]
Change in CNS-7054, Accelerated experiment (40° C., RH75%) [3]: Not increased
Change in CNS-7054, Long-term experiment (25° C., RH60%) [4]: Not increased

COC(=O)CC[C@@H]1N=C(c2ccccn2)c2cc(Br)ccc2-n2c(C)cnc21 [Remimazolam]
hemodynamics of the patients after receiving the drug (patients): unstable
patients with plasma concentration higher than the normal range (patients): 10%

CCOC(=O)CCC1N=C(c2ccccn2)c2cc(Br)ccc2-n2c(C)cnc21.O=S(=O)(O)c1ccccc1 (stereo not shown) [Positive control 2]
Number of animals with duration time longer than 10 min (KM mice [5]): 7/20
Number of animals with walking time longer than 1 min (KM mice [5]): 10/20
Walking time (KM mice [5]): 192.9 ± 268.98 s
duration time (recovery time) (KM mice [5]): 443.75 ± 247.86 s
induction time (time of loss of the righting reflex) (KM mice [5]): 17.1 ± 2.00 s

COC(=O)CCC1N=C(c2ccccn2)c2cc(Br)ccc2-n2c(C)cnc21.Cl (stereo not shown) [Methyl, 4% valine]
Change in CNS-7054, Accelerated experiment (40° C., RH75%) [3]: Increased by 0.01%
Change in CNS-7054, Long-term experiment (25° C., RH60%) [4]: Not increased

CCOC(=O)CCC1N=C(c2ccccn2)c2cc(Br)ccc2-n2c(C)cnc21.Cl (stereo not shown) [Ethyl, 5% alanine]
Change in CNS-7054, Accelerated experiment (40° C., RH75%) [3]: Increased by 0.01%
Change in CNS-7054, Long-term experiment (25° C., RH60%) [4]: Not increased

CCOC(=O)CCC1N=C(c2ccccn2)c2cc(Br)ccc2-n2c(C)cnc21.Cl (stereo not shown) [Ethyl, 2.8% glycine]
Change in CNS-7054, Accelerated experiment (40° C., RH75%) [3]: Not increased
Change in CNS-7054, Long-term experiment (25° C., RH60%) [4]: Not increased

COC(=O)CCC1N=C(c2ccccn2)c2cc(Br)ccc2-n2c(C)cnc21.Cl (stereo not shown) [Methyl, 3% glycine]
Change in CNS-7054, Accelerated experiment (40° C., RH75%) [3]: Not increased
Change in CNS-7054, Long-term experiment (25° C., RH60%) [4]: Not increased

CCOC(=O)CCC1N=C(c2ccccn2)c2cc(Br)ccc2-n2c(C)cnc21.Cl (stereo not shown) [Ethyl, 4% valine]
Change in CNS-7054, Accelerated experiment (40° C., RH75%) [3]: Increased by 0.01%

CCOC(=O)CCC1N=C(c2ccccn2)c2cc(Br)ccc2-n2c(C)cnc21.Cc1ccc(S(=O)(=O)O)cc1 (stereo not shown)
CNS-7054 increase, accelerated experiment (40° C., RH75%) [3]: Increased by 0.2%
CNS-7054 increase, long-term experiment (25° C., RH60%) [4]: Increased by 0.1%

CCOC(=O)CCC1N=C(c2ccccn2)c2cc(Br)ccc2-n2c(C)cnc21.Cl (stereo not shown) [Ethyl, 4.5% glycine]
Change in CNS-7054, Accelerated experiment (40° C., RH75%) [3]: Not increased
Change in CNS-7054, Long-term experiment (25° C., RH60%) [4]: Not increased

CCOC(=O)CCC1N=C(c2ccccn2)c2cc(Br)ccc2-n2c(C)cnc21.O=S(=O)(O)c1ccccc1 (stereo not shown) [positive control 2]
ED50 (95% confidence interval) (KM mice [1]): 15.62 mg/kg
TI (therapeutic index) (KM mice [2]): 16.8
LD50 (95% confidence interval) (KM mice [2]): 263.14 mg/kg

CCOC(=O)CC[C@@H]1N=C(c2ccccn2)c2cc(Br)ccc2-n2c(C)cnc21.Cl [R is ethyl, hydrochloride, ethyl (S)-3-(8-bromo-1-methyl-6-(pyridin-2-yl)-4H-benzo[f]imidazo[1,2-a][1,4]diazepin-4-yl)propanoate hydrochloride]
incidence of the animal anesthesia time of more than 10 minutes (KM mice [5]): 20%
incidence of the animal walking time of more than 1 min (KM mice [5]): 15%

COC(=O)CCC1N=C(c2ccccn2)c2cc(Br)ccc2-n2c(C)cnc21.Cl (stereo not shown) [Methyl, None]
Change in CNS-7054, Accelerated experiment (40° C., RH75%) [3]: Not increased

COC(=O)CCC1N=C(c2ccccn2)c2cc(Br)ccc2-n2c(C)cnc21.O=S(=O)(O)c1ccccc1 (stereo not shown) [Positive control 1]
Number of animals with duration time longer than 10 min (KM mice [5]): 9/20
Number of animals with walking time longer than 1 min (KM mice [5]): 17/20
Walking time (KM mice [5]): 514.95 ± 525.16 s
duration time (recovery time) (KM mice [5]): 692.3 ± 399.15 s
induction time (time of loss of the righting reflex) (KM mice [5]): 17.6 ± 1.93 s

CCOC(=O)CCC1N=C(c2ccccn2)c2cc(Br)ccc2-n2c(C)cnc21.Cl (stereo not shown) [Ethyl, 1.7% glycine]
Change in CNS-7054, Accelerated experiment (40° C., RH75%) [3]: Not increased
Change in CNS-7054, Long-term experiment (25° C., RH60%) [4]: Not increased

COC(=O)CCC1N=C(c2ccccn2)c2cc(Br)ccc2-n2c(C)cnc21.Cl (stereo not shown) [Methyl, 4% glycine]
Change in CNS-7054, Accelerated experiment (40° C., RH75%) [3]: Increased by
Change in CNS-7054, Long-term experiment (25° C., RH60%) [4]: Not increased
